From patent US20220324835A1 (Nurix Therapeutics, Inc., priority 2018, published 2022) come the findings set out here.

The target in assay [1] is T1, Cbl-b (Homo sapiens, UniProt Q13191). Kind of assay: Cbl-b inhibition assay (Cbl-b activity assay, FRET, Biological Example 1; 100 mM NaCl, 60 nM Src kinase). Format: biochemical. The note with it: upper bound stated in text lists; read-out: IC50 values in the Cbl-b inhibition assay of Biological Example 1. The gist of the method: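 N-terminally biotinylated Avi-tagged Cbl-b was mixed with Src kinase, UbcH5B covalently conjugated to Bodipy-fluorescein ubiquitin, and streptavidin-terbium. Src phosphorylation lets Cbl-b bind UbcH5B-Ub, giving terbium-fluorescein FRET; inhibition is read as loss of FRET signal.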
T1 sequence (Q13191 36-427): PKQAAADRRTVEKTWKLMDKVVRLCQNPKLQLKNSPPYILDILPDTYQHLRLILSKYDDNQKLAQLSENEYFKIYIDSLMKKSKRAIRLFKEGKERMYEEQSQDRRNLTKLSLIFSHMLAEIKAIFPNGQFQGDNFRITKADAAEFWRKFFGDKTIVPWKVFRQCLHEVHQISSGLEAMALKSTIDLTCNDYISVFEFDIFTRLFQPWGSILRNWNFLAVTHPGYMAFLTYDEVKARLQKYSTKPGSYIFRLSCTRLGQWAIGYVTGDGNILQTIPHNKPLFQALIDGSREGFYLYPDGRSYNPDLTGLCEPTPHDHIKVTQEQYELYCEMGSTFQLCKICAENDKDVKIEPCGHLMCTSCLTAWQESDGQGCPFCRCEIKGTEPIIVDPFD

For assay [2], the system named is T-cell. Kind of assay: IL-2 secretion from T-cells co-stimulated with anti-CD3 and anti-CD28 antibody (Biological Example 2). The class given is cell-based, human. The settings on record: Homo sapiens, T-cell, fold change over baseline (anti-CD3/anti-CD28 stimulated T-cells without inhibitor), read-out: IL-2 secretion Anti-CD3/Anti-CD28 stimulation; for fold induction at 0.3 µM: 0.3 μM Cbl-b inhibitor; for fold induction at 1 µM: 1 μM Cbl-b inhibitor. The gist of the method: (§1)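 T-cells were stimulated with anti-CD3 antibody alone or with anti-CD28 antibody, in the presence or absence of Cbl-b inhibitor. IL-2 secretion or CD25 surface staining was measured, and values expressed as fold over the uninhibited baseline […].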

For assay [3], the system named is T-cell. Kind of assay: IL-2 secretion from T-cells stimulated with anti-CD3 antibody alone (Biological Example 2). Format: cell-based, human. The note with it: Homo sapiens, T-cell; 1 μM Cbl-b inhibitor; fold change over baseline (anti-CD3/anti-CD28 stimulated T-cells without inhibitor); read-out: IL-2 secretion Anti-CD3 stimulation.
The test system of assay [4] is T-cell. Kind of assay: CD25 cell surface staining on T-cells co-stimulated with anti-CD3 and anti-CD28 antibody (Biological Example 2). Format: cell-based, human. The note with it: Homo sapiens, T-cell, fold change over baseline (anti-CD3/anti-CD28 stimulated T-cells without inhibitor), read-out: CD25 staining Anti-CD3/Anti-CD28 stimulation; for fold induction at 0.3 µM: 0.3 μM Cbl-b inhibitor; for fold induction at 1 µM: 1 μM Cbl-b inhibitor. The gist of the method: as §1

The subject of assay [5] is T-cell. Kind of assay: CD25 cell surface staining on T-cells stimulated with anti-CD3 antibody alone (Biological Example 2). Format: cell-based, human. The settings on record: Homo sapiens, T-cell; 1 μM Cbl-b inhibitor; fold change over baseline (anti-CD3/anti-CD28 stimulated T-cells without inhibitor); read-out: CD25 staining Anti-CD3 stimulation.
The target of assay [6] is T1, Cbl-b. Kind of assay: Cbl-b activity assay (Cbl-b inhibition assay), TR-FRET of Cbl-b interaction with UbcH5B-Ub. The class given is biochemical. The note with it: assay buffer with 100 mM NaCl, 60 nM Src kinase; read-out: Cbl-b activity IC50. The gist of the method:
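UbcH5B (C85K) conjugated to N-terminally Bodipy-Fluorescein-labeled ubiquitin served as the fluorescent partner. After compound preincubation, Src kinase (60 nM) with 1 mM ATP and 5 mM MgCl2 (final) was added for 1.5 h, followed by a further 1 h incubation. Some values were obtained with 50 mM NaCl and 30 nM Src.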
For orientation: TR-FRET usually uses a lanthanide donor and a delayed reading to cut background.

What is called IC50 is the concentration that inhibits the measured activity by half. As for `CN1CC2CC(C1)N2c1cc2c(c(C(F)(F)F)c1)CN(c1cccc([C@@](C)(F)C(F)(F)c3nncn3C)c1)C2=O` [Example 566, 6-(3-Methyl-3,6-diazabicyclo[3.1.1]heptan-6-yl)-2-(3-((R)-1,1,2-trifluoro-1-(4-methyl-4H-1,2,4-triazol-3-yl)propan-2-yl)phenyl)-4-(trifluoromethyl)isoindolin-1-one], the figures for the IC50 in assay [1] and in assay [6] were ≤ 100 nM and < 100 nM, respectively. In addition, the fold induction at 0.3 µM was in the range of 5 to 7.5 in assay [2] and 1.31 to 1.5 in assay [4]. Besides, the fold induction at 1 µM in assay [2] is > 7.5; in assay [3] it was 0.101 to 0.15; in assay [4], 1.51 to 1.75; in assay [5], > 1.
For the molecule `Cn1cnnc1CC1(c2cccc(N3Cc4c(cc(N5CCOCC5)cc4C(F)(F)F)C3=O)c2)COC1` [Example 567, 2-(3-(3-((4-Methyl-4H-1,2,4-triazol-3-yl)methyl)oxetan-3-yl)phenyl)-6-morpholino-4-(trifluoromethyl)isoindolin-1-one], the 50% inhibitory concentration (IC50) is ≤ 100 nM in assay [1] and < 100 nM in assay [6]. Also, the fold induction at 0.3 µM lay in the range of 1.01 to 2.5 in assay [2] and 1.01 to 1.3 in assay [4]. Moreover, the fold induction at 1 µM in assay [2] was in the range of 2.51 to 5; in assay [3], 0.051 to 0.1; in assay [4], 1.01 to 1.3; in assay [5], 0.801 to 1.
Take `Cn1cnnc1CC1(c2cccc(N3Cc4c(cc(C5CC5)nc4C4CC4)C3=O)c2)COC1` [Example 568, 4,6-Dicyclopropyl-2-(3-(3-((4-methyl-4H-1,2,4-triazol-3-yl)methyl)oxetan-3-yl)phenyl)-2,3-dihydro-1H-pyrrolo[3,4-c]pyridin-1-one]: the values for the IC50 in assay [1] and in assay [6] were ≤ 100 nM and < 100 nM, respectively. The fold induction at 0.3 µM in assay [2] lay within 1.01 to 2.5; in assay [4], 1.01 to 1.3. Further, the fold induction at 1 µM fell in the range of 1.01 to 2.5 in assay [2], 0.101 to 0.15 in assay [3], 1.01 to 1.3 in assay [4] and 0.801 to 1 in assay [5].
On to `CN1C[C@H]2C[C@@H]1CN2c1cc2c(c(C(F)(F)F)c1)CN(c1cccc(C3(Cc4nncn4C)COC3)c1)C2=O` [Example 569, 2-(3-(3-((4-Methyl-4H-1,2,4-triazol-3-yl)methyl)oxetan-3-yl)phenyl)-6-((1R,4R)-5-methyl-2,5-diazabicyclo[2.2.1]heptan-2-yl)-4-(trifluoromethyl)isoindolin-1-one], for which the IC50 was ≤ 100 nM in assay [1] and < 100 nM in assay [6]. Besides, the fold induction at 0.3 µM in assay [2] was > 7.5; in assay [4] it was 1.31 to 1.5. Further, the fold induction at 1 µM in assay [2] was > 7.5; in assay [3] it was > 0.201; in assay [4], 1.31 to 1.5; in assay [5], > 1.
For the molecule `C[C@@H](c1cc2c(c(C(F)(F)F)c1)CN(c1cccc(C3(C(F)(F)c4nncn4C)COC3)c1)C2=O)N1CC[C@H](F)C1` [Example 570, 2-(3-(3-(Difluoro(4-methyl-4H-1,2,4-triazol-3-yl)methyl)oxetan-3-yl)phenyl)-6-((S)-1-((S)-3-fluoropyrrolidin-1-yl)ethyl)-4-(trifluoromethyl)isoindolin-1-one], the values for the IC50 in assay [1] and in assay [6] were ≤ 100 nM and < 100 nM, respectively. Moreover, the fold induction at 0.3 µM in assay [2] lay in the range of 2.51 to 5; in assay [4], 1.31 to 1.5. Besides, the fold induction at 1 µM in assay [2] is > 7.5; in assay [3], > 0.201; in assay [4], 1.51 to 1.75; in assay [5] it was > 1.
For `CN1CC2CC(C1)N2c1cc(C(=O)Nc2cccc(C3(Cc4nncn4C)COC3)c2)nc(C2CC2)n1` [Example 572, 2-Cyclopropyl-N-(3-(3-((4-methyl-4H-1,2,4-triazol-3-yl)methyl)oxetan-3-yl)phenyl)-6-(3-methyl-3,6-diazabicyclo[3.1.1]heptan-6-yl)pyrimidine-4-carboxamide], the IC50 in assay [1] is ≤ 100 nM; in assay [6], < 100 nM. Also, the fold induction at 0.3 µM is > 7.5 in assay [2] and 1.31 to 1.5 in assay [4]. Also, the fold induction at 1 µM is > 7.5 in assay [2], > 0.201 in assay [3], 1.31 to 1.5 in assay [4] and > 1 in assay [5].
Take `CN1C[C@H]2CC[C@@H](C1)N2c1cc(C(=O)Nc2cccc(C3(Cc4nncn4C)COC3)c2)nc(C2CC2)n1` [Example 573, 2-Cyclopropyl-N-(3-(3-((4-methyl-4H-1,2,4-triazol-3-yl)methyl)oxetan-3-yl)phenyl)-6-((1R,5S)-3-methyl-3,8-diazabicyclo[3.2.1]octan-8-yl)pyrimidine-4-carboxamide]: the IC50 in assay [1] is ≤ 100 nM; in assay [6] it was < 100 nM. The fold induction at 0.3 µM was in the range of 5 to 7.5 in assay [2] and 1.31 to 1.5 in assay [4]. The fold induction at 1 µM in assay [2] was > 7.5; in assay [3], > 0.201; in assay [4], 1.51 to 1.75; in assay [5] it was > 1.
Turning to `Cn1cnnc1CC1(c2cccc(NC(=O)c3cc(CN4CC[C@H](F)C4)nc(C4CC4)n3)c2)COC1` [Example 574, (S)-2-Cyclopropyl-6-((3-fluoropyrrolidin-1-yl)methyl)-N-(3-(3-((4-methyl-4H-1,2,4-triazol-3-yl)methyl)oxetan-3-yl)phenyl)pyrimidine-4-carboxamide], the values for the IC50 in assay [1] and in assay [6] were ≤ 100 nM and < 100 nM, respectively. For the same molecule, the values for the fold induction at 0.3 µM in assay [2] and in assay [4] were > 7.5 and 1.51 to 1.75, respectively. The fold induction at 1 µM in assay [2] was > 7.5; in assay [3], > 0.201; in assay [4], 1.51 to 1.75; in assay [5], > 1.
`Cn1cnnc1CC1(c2cccc(N3Cc4c(ccc(F)c4C4CC4)C3=O)c2)COC1` [Example 577, 4-Cyclopropyl-5-fluoro-2-(3-(3-((4-methyl-4H-1,2,4-triazol-3-yl)methyl)oxetan-3-yl)phenyl)isoindolin-1-one]: the IC50 in assay [1] was ≤ 300 nM; in assay [6], 100 to 300 nM. The fold induction at 0.3 µM lay within 1.01 to 2.5 in assay [2] and 1.01 to 1.3 in assay [4]. For the same molecule, the fold induction at 1 µM is 1.01 to 2.5 in assay [2], 0.051 to 0.1 in assay [3], 1.01 to 1.3 in assay [4] and 0.601 to 0.8 in assay [5].
In the case of `Cn1cnnc1CC1(c2cccc(N3Cc4c(cc(CN5CC[C@H](F)C5)nc4C4CC4)C3=O)c2)COC1` [Example 578, (S)-4-cyclopropyl-6-((3-fluoropyrrolidin-1-yl)methyl)-2-(3-(3-((4-methyl-4H-1,2,4-triazol-3-yl)methyl)oxetan-3-yl)phenyl)-2,3-dihydro-1H-pyrrolo[3,4-c]pyridin-1-one], the IC50 in assay [1] is ≤ 100 nM; in assay [6], < 100 nM. For the same molecule, the fold induction at 0.3 µM in assay [2] was 2.51 to 5; in assay [4], 1.01 to 1.3. In addition, the fold induction at 1 µM in assay [2] fell in the range of 5 to 7.5; in assay [3], 0.051 to 0.1; in assay [4] it was 1.01 to 1.3; in assay [5], 0.801 to 1.
`Cn1cnnc1CC1(c2cccc(N3Cc4c(cc(CN5CCCC5)nc4C4CC4)C3=O)c2)COC1` [Example 579, 4-Cyclopropyl-2-(3-(3-((4-methyl-4H-1,2,4-triazol-3-yl)methyl)oxetan-3-yl)phenyl)-6-(pyrrolidin-1-ylmethyl)-2,3-dihydro-1H-pyrrolo[3,4-c]pyridin-1-one]: the IC50 is ≤ 100 nM in assay [1] and < 100 nM in assay [6]. In addition, the results for the fold induction at 0.3 µM in assay [2] and in assay [4] were 1.01 to 2.5 and 1.01 to 1.3, respectively. Moreover, the fold induction at 1 µM is 2.51 to 5 in assay [2], < 0.05 in assay [3], 1.01 to 1.3 in assay [4] and < 0.6 in assay [5].
Take `Cn1cnnc1CC1(c2cccc(N3Cc4c(cc(C(N5CCCC5)C(F)(F)F)cc4C(F)(F)F)C3=O)c2)COC1` (stereo not drawn) [Example 581, 2-(3-(3-((4-Methyl-4H-1,2,4-triazol-3-yl)methyl)oxetan-3-yl)phenyl)-6-(2,2,2-trifluoro-1-(pyrrolidin-1-yl)ethyl)-4-(trifluoromethyl)isoindolin-1-one]: the IC50 in assay [1] was ≤ 100 nM; in assay [6] it was < 100 nM. The fold induction at 0.3 µM in assay [2] was in the range of 1.01 to 2.5; in assay [4] it was 1.01 to 1.3. Also, the fold induction at 1 µM in assay [2] lay within 2.51 to 5; in assay [3], 0.051 to 0.1; in assay [4], 1.31 to 1.5; in assay [5] it was 0.801 to 1.
